Experimental data as given in patent publication US11278555B2, “Combinational therapies for treatment of cancer comprising a bacteriochlorophyll derivative” (Yeda Research and Development Co. Ltd., priority 2016, dated 2022).

Tested on: orthotopic 4T1-Luc tumors
Assay: STL-6014 PDT and metronomic Gemzar in mice bearing 4T1-Luc tumors in the mammary pad (Scheme 1): primary tumor, survival, lung metastases, re-challenge
Format: in vivo, Balb/c mice
Protocol: • (i) Bacteriochlorophyll Derivatives—The Bchl derivatives and RGD-conjugates thereof were provided by Steba Biotech (Rehovot, Israel). […] Concentration was verified by spectrophotometric measurement. STL-7012 was provided as dipotassium salt. Working solution was prepared by dissolving STL-7012 K^+ salt in 5% mannitol solution (1 mg/ml). […] WST11 was supplied as a powder and kept in the dark at −20° C. Stock was prepared by dissolving WST11 in DDW containing 5% glucose and 0.67% mannitol, aliquoted and lyophilized. Working solution was reconstituted with DDW and the concentration of solution was confirmed spectrophotometrically. Alternatively, Clinical WST11 (batch: P00611, and 10-130611) was supplied as lyophilized formulation. Material was dissolved in 5% dextrose, aliquoted and stored at −20° C. At the day of treatment the aliquot was thawed, filtered and the concentration of solution was confirmed spectrophotometrically. • (ii) Chemotherapeutic drugs preparation and storage—Gemcitabine (GEM, Gemzar®, Lilly) was purchased from a local pharmacy as a powder, dissolved in saline to a concentration of 38 mg/ml, aliquoted and stored at −20° C. Aliquots were thawed, diluted with saline to a desired concentration and used on the same day at a dose of 75 mg/kg. Cyclophosphamide (CTX, Endoxan®, Baxter Oncology Gmbh, Germany) was purchased from a local pharmacy. A stock solution of 20 mg/ml was prepared by dissolving in 0.9% NaCl, aliquoted and stored at −20° C. Aliquots were thawed, diluted with saline if needed to a desired concentration and used on the same day prepared at indicated doses. • (iii) Murine cell lines—Mammary luciferase (luc)-labeled 4T1 cell line (4T1-Luc) was a kind gift from Dr. Zvi Granot (Faculty of Medicine, The Hebrew University of Jerusalem, Israel); melanoma B16-F10 cell line was obtained from the American Type Culture Collection (ATCC, Manassas, Va.); bladder MB49 cell line was a kind gift from James Allison (MSKCC, New York, USA), and luc-labeled MB49-cell line was established using the murine stem cell virus (MSCV)-puromycin-luc-GFP construct (kindly provided by Dr. Emily Cheng, Human Oncology and Pathogenesis Program, MSKCC). 4T1 and MB49 cells were maintained in DMEM medium and B16-F10 cells in RPMI medium supplemented with 1 mmol/L sodium pyruvate, 10% fetal calf serum (FCS), 250 μg/ml hygromycin, 0.06 mg/ml penicillin and 0.1 mg/ml streptomycin. The cells were grown as monolayer at 37° C. in a humidified atmosphere (5% CO2, 95% air). • (iv) Murine tumor models—Female, Balb/c mice (6-8 week old) were grafted either subcutaneously (s.c.) into the right hind leg or orthotopically with 1×10^6 4T1 cells suspended in 50 or 1000 PBS. For the rechallenge study, 2×10^5 4T1 cells were orthotopically grafted. For bladder cancer model, 5×10^4 of MB49 or MB49-luciferase cell line were s.c. injected into the right flank of C57B/6 male mice (7-8 weeks old, Taconic, Hudson, N.Y.) 15 days prior to VTP treatment. For the efficacy study of VTP in immune compromised mice, the same number of MB49 cells was injected in the flank of Rag^−/− on C57B/6 background or C57B/6 male mice (7-8 week old, Jackson Laboratory, Bar Harbor, Me.). […] Whole body imaging of luciferase-transfected tumors and metastases were recorded five minutes following 75 mg Kg^−1 intraperitoneal (i.p.) injection of D-luciferin with respective filter sets. • (vi) PDT treatment protocol: 4T1-Luc cells were grafted in the mammary pad of Balb/c mice. […]

[1] = 120 days follow up, monotherapy

Compound: Nc1ccn([C@@H]2O[C@H](CO)[C@@H](O)C2(F)F)c(=O)n1 [Gemzar, Gemcitabine]
- primary tumor cure [1]: no primary tumor cure
- survival compared to control (Kaplan-Meier) [1]: Extended mice survival
- primary cure (Gemzar only, 75 mg/kg i.p. metronomic): 0%
